Results on one substance are retold here after patent US20170143787A1, “CHEMOKINE RECEPTOR ANTAGONIST AND ITS COMBINATIONAL THERAPY” (Pertinax Therapeutics Inc., priority 2014, published 2017).

The subject of series [1] is refractory neoplasms (various solid tumors). The series can be described thus: open label, dose-finding trial (Accelerated Titration Design) in subjects with refractory neoplasms. In kind it is in vivo, human. The method, then:
According to the study design, the cohort was to be expanded in the case of moderate toxicity to include more subjects and additional dose increments (40%) until the maximum dose of 5 mg/kg or dose limiting toxicity was achieved.
Subjects were dosed daily for 4 consecutive weeks (not including weekends and holidays) and dose limiting toxicity was assessed after subjects have completed their treatment.
Toxicity reported during the study was graded according to the National Cancer Institute (NCI) CTCAE (Common Terminology Criteria for Adverse Events) v3.0. A Dose Limiting Toxicity (DLT) was defined as follows: • a) Any grade ≧3 reversible non-haematologic treatment-related toxicity OR • b) Any irreversible grade ≧2 non-haematologic treatment-related toxicity OR • c) Any grade ≧4 haematologic treatment-related toxicity lasting longer than 10 days during the 4 weeks of treatment
For the purpose of this study, Moderate Toxicity has been defined according to NCI CTCAE v3.0. Adverse events were treated when they occurred. No investigational or commercial agents or therapies were administered with the intent to treat the subject's malignancy during the period that the subjects were in the study.

For series [2], the system named is rat HCC cell line, CRL-1601. Particulars: 12.5 or 25 mg/kg/day s.c. for 4 weeks. From the text: The CXCR4 antagonists used was the short peptide dimer antagonist CTCE-9908 (SEQ ID NO.1). A rat orthotopic hepatocellular carcinoma (HCC) model was established by injection of a rat HCC cell line, CRL-1601, into the left lobe of the liver of Buffalo rats. Since the rat HCC cell line was generated from Buffalo rats, in vivo formed tumor in the Buffalo rats can mimic the clinical setting. […]
The first group (control) received sham operation followed by water for irrigation. […] The dimension of the primary tumour was measured along with liver function. The microvessel density, proliferation index of tumor cells, apoptotic state and morphology of tumour cells in primary tumour and metastases were analysed by immunohistochemistry. […] The number of metastatic tumour loci was analysed. Plasma SDF-1 was analyzed by ELISA. […]
This study examined a rat model of hepatocellular carcinoma (HCC) that mimics transarterial chemoembolization in the clinical setting. […] One week after the last CTCE-9908 treatment, the rats were sacrificed and assessments of the tumor as well as the circulating cells were made by luminescence and flow cytometry, respectively.

Consider KGVSLSYR-X-RYSLSVGK [CTCE-9908], for which the “number of Moderate Toxicities observed during the study” value in series [1] (NCI CTCAE v3.0, whole study) is reported as “eight”. Also, in series [1] (at the end of their last treatment cycle, 1, 2.5 and 5 mg/kg/day doses), the “overall stable disease, number of subjects” value is “five”. Besides, the “Dose Limiting Toxicity (DLT)” value in series [1] (daily dosing for 4 consecutive weeks, up to 5 mg/kg, NCI CTCAE v3.0) is listed as “no DLT was reported”. Also, the tumor markers entry in series [1] (one ovarian cancer subject and one colorectal cancer subject) is recorded as “reduction in tumor markers”. Also, in series [1] (one small bowel subject), the “duration of stable disease” value is “up to seven”. The “Maximum Tolerated Dose (MTD)” value in series [1] (subjects with refractory neoplasms, up to 5 mg/kg) was “not established”. Moreover, in series [2] (CTCE-9908 in combination with hepatic artery ligation (HAL), luminescence and necropsy), the tumor regression result is “up to 80%”. Also, the tolerability entry in series [2] (rats) was “well tolerated by all rats”.
